Data set [1] in a line: Solid state polarisation after DNP, followed by solid state 13C-NMR. The class given is physicochemical. The following applies: DNP at 1.2 K, 3.35 T, microwave 93.89 GHz, trityl radical and Gd-chelate. The text has this:
The level of polarisation may for instance be determined by solid state ^13C-NMR measurements in solid hyperpolarised ^13C-acetate, e.g. solid hyperpolarised ^13C-acetate obtained by dynamic nuclear polarisation (DNP) of ^13C-acetate. The solid state ^13C-NMR measurement preferably consists of a simple pulse-acquire NMR sequence using a low flip angle. The signal intensity of the hyperpolarised ^13C-acetate in the NMR spectrum is compared with signal intensity of ^13C-acetate in a NMR spectrum acquired before the polarisation process. The level of polarisation is then calculated from the ratio of the signal intensities of before and after polarisation.
The probe is inserted into the probe-retaining container, submerged in the liquid helium and irradiated with microwaves. The microwave frequency may be determined from the EPR line of the DNP agent, which depends on the magnetic field of the magnet as 28.0 GHz/T. The optimal microwave frequency may be determined by adjusting the frequency for maximal NMR signal. Preferably, the optimal microwave frequency is in the about 94 GHz for a magnet charged to 3.35 T, 110 GHz for a magnet charged to 4 T, 140 GHz for a magnet charged to 5 T and 200 GHz for a magnet charged to 7 T. The power may be chosen between 50 and 200 mW, dependent on the probe size. The level of polarisation may be monitored as earlier described by for instance acquiring solid state ^13C-NMR signals of the probe during microwave irradiation. Generally, a saturation curve is obtained in a graph showing NMR signal vs. time. […] A solid state ^13C-NMR measurement suitably consists of a simple pulse-acquire NMR sequence using a low flip angle. […] The polarisation is then calculated from the ratio of the signal intensities before and after DNP.
To a micro test tube was added sodium ^13C1-acetate (Aldrich, 24.9 mg, 0.30 mmol) and 16 μl water. […] Polarisation was followed by solid state ^13C-NMR and the solid state polarisation was determined to be more than 20%. […]

A short description of data set [2]: Liquid state polarisation of the dissolved imaging medium by liquid state 13C-NMR. The following applies: for liquid state polarisation: liquid state 13C-NMR at 400 MHz, after 75 min DNP, dissolved in phosphate buffer pH 7, 50 mM. It is filed as physicochemical. The procedure:
In a similar way, the level of polarisation for dissolved hyperpolarised ^13C-acetate may be determined by liquid state NMR measurements. Again the signal intensity of the dissolved hyperpolarised ^13C-acetate is compared with the signal intensity of the dissolved ^13C-acetate before polarisation. The level of polarisation is then calculated from the ratio of the signal intensities of ^13C-acetate before and after polarisation. Hyperpolarisation of NMR active ^13C-nuclei may be achieved by different methods which are for instance described in described in WO-A-98/30918, WO-A-99/24080 and WO-A-99/35508, and which all are incorporated herein by reference and hyperpolarisation methods known in the art are polarisation transfer from a noble gas, “brute force”, spin refrigeration, the parahydrogen method and dynamic nuclear polarisation (DNP).
After 75 minutes of dynamic nuclear polarisation, the obtained frozen polarised composition was dissolved in 6 ml phosphate buffer (20 mM, pH 7, 100 mg/l EDTA, 0.9% NaCl). The pH of the final solution containing the dissolved composition was 7.3±0.1. The sodium ^13C1-acetate concentration in said final solution was 50 mM.
Liquid state polarisation was determined by liquid state ^13C-NMR at 400 MHz to be 19%.
After 75 minutes of dynamic nuclear polarisation, the obtained frozen polarised composition was dissolved in 6 ml phosphate buffer (20 mM, pH 7, 100 mg/l EDTA, 0.9% NaCl). The pH of the final solution containing the dissolved composition was 7.3±0.1. The TRIS-^13C1-acetate-d3 concentration in said final solution was 50 mM.
Liquid state polarisation was determined by liquid state ^13C-NMR at 400 MHz to be 32%.

A further data set concerns mouse myocardium. In words: In vivo 13C-MR spectroscopy in mice (heart), conversion of hyperpolarised 13C-acetate to 13C-acetyl-CoA and 13C-acetylcarnitine. Also noted: species or system C57Bl/6 mouse. The procedure:
200 μl of an imaging medium which was prepared as described in Example 3a was injected into a C57Bl/6 mouse over a time period of 6 s. The TRIS-^13C1-acetate concentration in said imaging medium was 75 mM and the polarisation was 20% at the time of injection. A ^13C-surface coil (diameter 12 mm) was placed over the mouse myocardium. A rat ^1H-body coil was used for anatomical reference images and localised shimming. ^13C-MR spectroscopy was carried out with a 2.4 T Bruker spectrometer. A dynamic set of ^13C-MR spectra (in total 30) was acquired every 3 s with a 30 degree RF pulse. From this experiment a ^13C1-acetylcarnitine signal build-up over the time of the experiment was clearly seen (FIG. 1).
(§1) 200 μl of an imaging medium which was prepared as described in Example 3a was injected into a C57Bl/6 mouse over a time period of 6 s. The TRIS-^13C1-acetate concentration in said imaging medium was approx. 50 mM. In both experiments (n=2) a ^13C-surface coil (diameter 12 mm) was placed over the mouse myocardium and ^13C-MR spectroscopy was carried out in a 2.4 T Bruker spectrometer. A spectrum was acquired 10 s after the imaging medium had been injected with a 90 degree RF pulse. […] The ratio of ^13C1-acetylcarnitine to ^13C1-acetyl-CoA was roughly 3 times higher in the heart than in the liver, see Example 6.

The next data set deals with mouse liver. In words: In vivo 13C-MR spectroscopy in mice (liver), conversion of hyperpolarised 13C-acetate to 13C-acetyl-CoA and 13C-acetylcarnitine. To be noted: 200 μl of approx. 50 mM, spectrum 10 s after injection, 90 degree pulse, n=2 (FIG. 2, 3). Also noted: species or system C57Bl/6 mouse. On the procedure: as §1, with “liver” for “myocardium”, “lower” for “higher”, “5.” for “6.”

Take `C[13C](=O)[O-].[Na+]` [sodium ^13C1-acetate]: the solid state polarisation entry in data set [1] is “more than 20%”. The liquid state polarisation in data set [2] worked out at 19%.
Consider `C[13C](=O)O.NC(CO)(CO)CO` [TRIS-^13C1-acetate], for which, in data set [1], the solid state polarisation result is given as “more than 25%”. Moreover, the “polarisation at the time of injection” value in data set [2] (imaging medium 75 mM, at the time of injection into mouse) is 20%. Further, in the data set with mouse myocardium (200 μl of 75 mM injected over 6 s, 30 spectra every 3 s, 30 degree pulse, 2.4 T (FIG. 1)), the “13C1-acetylcarnitine signal build-up over the time of the experiment” value is “clearly seen”. Also, the “identification of 13C1-acetyl-CoA and 13C1-acetylcarnitine” value with mouse myocardium (200 μl of approx. 50 mM, spectrum 10 s after injection, 90 degree pulse, n=2 (FIG. 2, 3)) is listed as “could be identified”; with mouse liver, “could be identified”.
For the compound `NC(CO)(CO)CO.[2H]C([2H])([2H])[13C](=O)O` [TRIS-^13C1-acetate-d3], in data set [1], the solid state polarisation entry is “more than 25%”. The compound also came in with a liquid state polarisation in data set [2] of 32%.

Values taken from patent US20110243855A1, “METHOD AND IMAGING MEDIUM FOR USE IN THE METHOD” (priority 2007, published 2011).
